Test system: Maize
Experiment: Maize trials: soil and foliar application of nano chitosan fertilizer product on maize crops (greenhouse pots)
Format: in vivo
Protocol: Maize trials. Assays were also performed to evaluate soil and foliar application of nano chitosan fertilizer product on maize crops. These trials were also performed to investigate the effect of different concentrations of bulk and nano chitosan on the growth and productivity of maize. The maize trials included a further formulation for nano-chitosan urea, namely a urea-chitosan nanocomposite. The urea-chitosan nanocomposite was prepared by evaporating or freeze-drying the nano-chitosan fertilizer aqueous solution. The current urea-chitosan nanocomposite was prepared by evaporating an aqueous solution of nanochitosan urea at 50° C. for two days in an oven. Nanocomposite morphology of the urea-chitosan nanocomposite was confirmed based on SEM and compositional analysis shown in FIGS. 6A-6E and TEM shown in FIGS. 7A-7E. For SEM and compositional analysis on solid form, samples were studied in Zeiss EVO 15 after coating samples with gold to avoid charging. The powder was mounted on an aluminum stub. Based on the EDS analysis, it appeared that chitosan and urea was present in this powder. For the TEM analysis, a small amount of the sample was taken in a small vial, diluted with DM water and sonicated for 15 mins. One to two drops of this solution was taken on a formvar grid, the excess liquid was blotted on a filter paper, and TEM analysis was carried out Tecnai F20 at representative magnifications shown in FIGS. A thin grey film in the background with very small sized darker particles were apparent. An occasional larger sized film was also seen. Because urea dissolves in water, the morphology seen in the images of this sample was primarily urea-chitosan nanocomposite (nanoparticles). The process of drying in an oven over two days ensured steady removal of water without disturbing the nano-morphology of the urea-chitosan nanocomposite. Table 6 presents the trial details for the soil and foliar application of nano chitosan fertilizer product on maize crops. [table] Control samples were T1 (urea granules, at different time); T2 (urea and zinc, commercially available); and T13 (urea powder). As shown, Table 7A also presents the varying concentrations for the samples. […] Each rectangle represented a section or table in the greenhouse and the respective Trial sample(s) shown thereon. […] FIG. 13 is a graphical representation of the number of leaves apparent at 30 days after sowing (DAS) and at 60 DAS for samples T1 through T23. […] The amount of chlorophyll present in the leaf for samples T1 through T23 was measured using a soil plant analysis development (SPAD) chlorophyll meter and is shown in FIG. 14. […]

NC(N)=O [T13, urea]
SPAD READING 30 DAS (leaf chlorophyll, SPAD chlorophyll meter, 30 DAS): 34.50
SPAD READING 60 DAS (leaf chlorophyll, SPAD chlorophyll meter, 60 DAS): 33.33
Cob Yield (maize): 7.33 g
Grain Yield (maize): 0.00 g
Plant Height 30 DAS (maize, 30 DAS): 124.33 centimeters
Plant height 60 DAS (maize, 60 DAS): 159.00 centimeters
No. of leaves 30 DAS (maize, 30 days after sowing, soil or foliar application as per treatment): 8.67
No. of leaves 60 DAS (maize, 60 days after sowing, soil or foliar application as per treatment): 12.67
corn cob development (grains within the cob) (observation by greenhouse section A, B, C): failed to show grains

Source: patent US20250051243A1, “Nano Bio-Carrier with Plant Additives Combined with Chemical Fertilizers” (Sabic Agri-Nutrients Company, priority 2021, published 2025)
